Values quoted from earlier work in patent EP0496548A1, “Carbacyclin analogs” (PURDUE RESEARCH FOUNDATION, priority 1991, dated 1992).

Details: in vivo

Compound | serum half-life (attributed to enzymatic oxidation) | half-life ('generally') [min]
CCCCC[C@H](O)/C=C/[C@@H]1[C@H]2C/C(=C/CCCC(=O)O)C[C@H]2C[C@H]1O [carbacyclin] | comparable to that of prostacyclin | 
CCCCC[C@H](O)/C=C/[C@@H]1[C@H]2C/C(=C/CCCC(=O)O)O[C@H]2C[C@H]1O [prostacyclin, Prostacyclin] |  | 2 to 3
